# Patent publication US20090004185A1, “AMINO-SUBSTITUTED QUINAZOLINE DERIVATIVES AS INHIBITORS OF BETA-CATENIN/TCF-4 PATHWAY AND CANCER TREATMENT AGENTS” (WYETH, priority 2007, published 2009)
# System: β-catenin/Tcf-4
# Assay: cells
# Assay type: cell-based
# Conditions: Homo sapiens, SW480, 24 h, Tcf 33.13 cells derived from SW480; 24 hours of incubation with compound; ratio Firefly/Renilla luciferase
# Text: Background cell line: SW480 colorectal carcinoma DNA constructs:
# 1) Tcf-4-Luc: Tcf-4 binding sites driving Firefly Luciferase in the pGL3 vector—to measure the activity of β-catenin/Tcf-4;
# (§1) 2) SV40-Luc: SV40 binding site driving Firefly Luciferase in the pGL3 vector—as a control for non-specific inhibitors; and
# (§2) 3) SV40-R-Luc: SV40 binding site driving Renilla Luciferase in the pGL3 vector—as an internal control for cell number and toxicity.
# This screen uses 3 cell lines derived from SW480 and selected to contain the above luciferase reporters integrated into their chromosomes as follows: […]
# (§3) Cells: Tcf22C11 and SV5A8 were grown in the presence of 500 μg/ml G418 and Tcf 33.13 was grown in the presence of 500 μg/ml G418+125 μg/ml Zeocin to maintain the integrated reporters. The cells were trypsinized and plated at 1×10^4 cells/well in opaque 96 well plates.
# The compounds were diluted as follows: The compounds were stored frozen in dimethyl sulfoxide (DMSO) at […]. Compounds were initially titrated in DMSO to make a 1000×DMSO stock solution. Compounds were then diluted 1:25 into media/DMSO (DMEM+10% FBS+9% DMSO). Using the Biomek Multimek, the diluted compounds were mixed well and immediately added to the plated cells in a 1:40 dilution. The final concentration of DMSO in the assay plates was 0.316% DMSO.
# (§4) Assay Readout: The luciferase signal was detected using a luciferase detection kit from Promega. Until December 2003, Promega's Dual-Luciferase® Reporter (DLR™) Assay System was used to detect luciferase activity. Briefly, after 24 hours of incubation with compound, culture media was removed by aspiration and 20 ul of passive lysis buffer (Promega) per well was added. The plates were shaken for 15 min. Firefly substrate was then added and the resulting luminescence was immediately read on a CCD camera imaging device or a luminometer. After quantifying the firefly luminescence, the reaction was quenched, and the Renilla luciferase reaction was initiated simultaneously by adding Stop & Glo® Reagent to the same sample. Renilla luciferase was then quantified using the CCD camera or luminometer.
# Promega's Dual-Glo™ Luciferase Assay System can be used for luciferase detection. […] Briefly, after 24 hours of incubation with compound, culture media was removed by aspiration and 75 ul of fresh medium was added. Add 75 ul of Dual-Glo Luciferase Reagent (Promega) to each well and mix by shaking for 10 minutes on a plate shaker. Then, measure the firefly luminescence on a CCD camera imaging device or a luminometer. After quantifying the firefly luminescence, add 75 ul of Dual-Glo Stop & Glo Reagent (Promega) to each well and mix for 10 minutes. Renilla luciferase was then quantified using the CCD camera or luminometer.
# (§5) This assay was meant to confirm primary leads and determine IC50s. Compounds were tested at titrated dilutions. The raw data for this assay was reported in protocol 2463-B. Protocol 2463-C contains the IC50 calculations based on the raw data. The data calculations were done as follows:
# (§6) The data was expressed as % of control for both Firefly and Renilla Luciferase. The ratio of FF/Renilla (F/R) was then calculated and averaged between duplicate plates. The data was then plotted using LSW Data Analysis in Microsoft Excel. IC50s were determined by plotting the data in the LSW Data Analysis program using model 33. The IC50s (nM) for all three cell lines were reported.
row,IC50,Compound
1,> 6020 nM,"CNc1nc(NCc2ccc(NC(=O)c3cc(F)ccc3C)cc2)c2ccccc2n1 [Example 1, 5-fluoro-2-methyl-N-[4-({[2-(methylamino)quinazolin-4-yl]amino}methyl)phenyl]benzamide]"
2,> 2920 nM,"CNc1nc(NCc2ccc(NC(=O)COCc3ccccc3)cc2)c2ccccc2n1 [Example 2, 2-(benzyloxy)-N-[4-({[2-(methylamino)quinazolin-4-yl]amino}methyl)phenyl]acetamide]"

# Same assay, conditions: Homo sapiens, Tcf22C11, 24 h, Tcf 22C11 cells derived from SW480; 24 hours of incubation with compound; ratio Firefly/Renilla luciferase
row,IC50,Compound
1,> 6020 nM,"CNc1nc(NCc2ccc(NC(=O)c3cc(F)ccc3C)cc2)c2ccccc2n1 [Example 1, 5-fluoro-2-methyl-N-[4-({[2-(methylamino)quinazolin-4-yl]amino}methyl)phenyl]benzamide]"
2,> 2920 nM,"CNc1nc(NCc2ccc(NC(=O)COCc3ccccc3)cc2)c2ccccc2n1 [Example 2, 2-(benzyloxy)-N-[4-({[2-(methylamino)quinazolin-4-yl]amino}methyl)phenyl]acetamide]"

# System: SV40-Luc
# Assay: SV40-Luc control luciferase reporter assay, SV 5A8 cell line (SV40-Luc and SV40-R-Luc), control for non-specific inhibitors
# Assay type: cell-based, human
# Conditions: Homo sapiens, SV5A8, 24 h, SV 5A8 cells derived from SW480; 24 hours of incubation with compound; ratio Firefly/Renilla luciferase
# Text: Background cell line: SW480 colorectal carcinoma DNA constructs: […]
# as §1, §2
# This screen uses 3 cell lines derived from SW480 and selected to contain the above luciferase reporters integrated into their chromosomes as follows:
# SV 5A8—SV40-Luc and SV40-R-Luc
# as §3
# Compounds: 20-24 hours after cell plating, compounds were added at titrated concentrations between […]. The compounds were diluted as follows: The compounds were stored frozen in dimethyl sulfoxide (DMSO) at […]. Compounds were initially titrated in DMSO to make a 1000×DMSO stock solution. Compounds were then diluted 1:25 into media/DMSO (DMEM+10% FBS+9% DMSO). Using the Biomek Multimek, the diluted compounds were mixed well and immediately added to the plated cells in a 1:40 dilution. The final concentration of DMSO in the assay plates was 0.316% DMSO.
# as §4
# Promega's Dual-Glo™ Luciferase Assay System can be used for luciferase detection. It was similar to the DLR Assay, however, unlike the DLR which has to be read immediately due to decaying signal, the signal in the Dual-Glo™ Luciferase Assay was stable for up to 2 hours. Briefly, after 24 hours of incubation with compound, culture media was removed by aspiration and 75 ul of fresh medium was added. Add 75 ul of Dual-Glo Luciferase Reagent (Promega) to each well and mix by shaking for 10 minutes on a plate shaker. Then, measure the firefly luminescence on a CCD camera imaging device or a luminometer. After quantifying the firefly luminescence, add 75 ul of Dual-Glo Stop & Glo Reagent (Promega) to each well and mix for 10 minutes. Renilla luciferase was then quantified using the CCD camera or luminometer.
# as §5, §6
row,IC50,Compound
1,> 2980 nM,"CNc1nc(NCc2ccc(NC(=O)c3ccc(Cl)nc3)cc2)c2ccccc2n1 [Example 3, 6-chloro-N-[4-({[2-(methylamino)quinazolin-4-yl]amino}methyl)phenyl]nicotinamide]"
2,> 2980 nM,"CNc1nc(NCc2ccc(NC(=O)c3ccnc(Cl)c3)cc2)c2ccccc2n1 [Example 4, 2-chloro-N-[4-({[2-(methylamino)quinazolin-4-yl]amino}methyl)phenyl]isonicotinamide]"
3,2190 nM,"CNc1nc(NCc2ccc(NC(=O)c3ccc(Cl)cc3)cc2)c2ccccc2n1 [Example 10, 4-chloro-N-[4-({[2-(methylamino)quinazolin-4-yl]amino}methyl)phenyl]benzamide]"
4,> 5980 nM,"CNc1nc(NCc2ccc(NC(=O)c3cccc(Cl)c3)cc2)c2ccccc2n1 [Example 11, 3-chloro-N-[4-({[2-(methylamino)quinazolin-4-yl]amino}methyl)phenyl]benzamide]"
5,> 25200 nM,"CNc1nc(NCc2ccc(NC(=O)c3ccc(C)cc3)cc2)c2ccccc2n1 [Example 12, 4-methyl-N-[4-({[2-(methylamino)quinazolin-4-yl]amino}methyl)phenyl]benzamide]"
6,> 778 nM,"CNc1nc(NCc2ccc(NC(=O)c3ccc(F)cc3)cc2)c2ccccc2n1 [Example 13, 4-fluoro-N-[4-({[2-(methylamino)quinazolin-4-yl]amino}methyl)phenyl]benzamide]"
7,> 5440 nM,"CNc1nc(NCc2ccc(NC(=O)c3ccc(-c4ccccc4)cc3)cc2)c2ccccc2n1 [Example 15, N-[4-({[2-(methylamino)quinazolin-4-yl]amino}methyl)phenyl]biphenyl-4-carboxamide]"
8,> 5790 nM,"CNc1nc(NCc2ccc(NC(=O)c3ccc(Cl)cc3)cc2)c2cc(C)ccc2n1 [Example 18, 4-chloro-N-[4-({[6-methyl-2-(methylamino)quinazolin-4-yl]amino}methyl)phenyl]benzamide]"
9,> 1380 nM,"CNc1nc(NCc2ccc(NC(=O)c3ccc(C(F)(F)F)cc3)cc2)c2ccccc2n1 [Example 20, N-[4-({[2-(methylamino)quinazolin-4-yl]amino}methyl)phenyl]-4-(trifluoromethyl)benzamide]"
10,> 12200 nM,"CNc1nc(NCc2ccc(NC(=O)c3ccc(C#N)cc3)cc2)c2ccccc2n1 [Example 21, 4-cyano-N-[4-({[2-(methylamino)quinazolin-4-yl]amino}methyl)phenyl]benzamide]"
11,> 602 nM,"CNc1nc(NCc2ccc(NC(=O)c3ccc(F)cc3)cc2)c2cc(C)ccc2n1 [Example 24, 4-fluoro-N-[4-({[6-methyl-2-(methylamino)quinazolin-4-yl]amino}methyl)phenyl]benzamide]"
12,> 18500 nM,"CN(C)c1nc(NCc2ccc(NC(=O)c3ccc(F)cc3)cc2)c2ccc(I)cc2n1 [Example 86, N-[4-({[2-(dimethylamino)-7-iodoquinazolin-4-yl]amino}methyl)phenyl]-4-fluorobenzamide]"
13,> 20900 nM,"C=Cc1ccc2c(NCc3ccc(NC(=O)c4ccc(F)cc4)cc3)nc(N(C)C)nc2c1 [Example 87, N-[4-({[2-(dimethylamino)-7-vinylquinazolin-4-yl]amino}methyl)phenyl]-4-fluorobenzamide]"
14,> 2600 nM,"CCc1ccc2c(NCc3ccc(NC(=O)c4ccc(F)cc4)cc3)nc(N(C)C)nc2c1 [Example 88, N-[4-({[2-(dimethylamino)-7-ethylquinazolin-4-yl]amino}methyl)phenyl]-4-fluorobenzamide]"
15,> 21000 nM,"CN(C)c1nc(NCc2ccc(NC(=O)c3ccc(F)cc3)cc2)c2ccc(C#N)cc2n1 [Example 89, N-[4-({[7-cyano-2-(dimethylamino)quinazolin-4-yl]amino}methyl)phenyl]-4-fluorobenzamide]"
16,> 9170 nM,"CN(C)Cc1ccc2c(NCc3ccc(NC(=O)c4ccc(F)cc4)cc3)nc(N(C)C)nc2c1 [Example 91, N-{4-[({2-(dimethylamino)-7-[(dimethylamino)methyl]quinazolin-4-yl}amino)methyl]phenyl}-4-fluorobenzamide]"
17,> 17900 nM,"CN(C)c1nc(NCc2ccc(NC(=O)c3ccc(F)cc3)cc2)c2ccc(C=O)cc2n1 [Example 92, N-[4-({[2-(dimethylamino)-7-formylquinazolin-4-yl]amino}methyl)phenyl]-4-fluorobenzamide]"
18,> 10400 nM,"CN(C)c1nc(NCc2ccc(NC(=O)c3ccc(F)cc3)cc2)c2ccc(CO)cc2n1 [Example 93, N-[4-({[2-(dimethylamino)-7-(hydroxymethyl)quinazolin-4-yl]amino}methyl)phenyl]-4-fluorobenzamide]"
19,> 20200 nM,"CC(O)c1ccc2c(NCc3ccc(NC(=O)c4ccc(F)cc4)cc3)nc(N(C)C)nc2c1 (stereo not shown) [Example 95, N-[4-({[2-(dimethylamino)-7-(1-hydroxyethyl)quinazolin-4-yl]amino}methyl)phenyl]-4-fluorobenzamide]"
20,> 3010 nM,"CNc1nc(NCc2ccc(NC(=O)c3ccc(F)cc3)cc2)c2cccc(C)c2n1 [Example 190, 4-fluoro-N-[4-({[8-methyl-2-(methylamino)quinazolin-4-yl]amino}methyl)phenyl]benzamide]"
21,> 1450 nM,"CNc1nc(NCc2ccc(NC(=O)c3ccc(Cl)cc3)cc2)c2cccc(C)c2n1 [Example 191, 4-chloro-N-[4-({[8-methyl-2-(methylamino)quinazolin-4-yl]amino}methyl)phenyl]benzamide]"
22,> 3010 nM,"CNc1nc(NCc2ccc(NC(=O)c3ccc(F)cc3)cc2)c2c(C)cccc2n1 [Example 192, 4-fluoro-N-[4-({[5-methyl-2-(methylamino)quinazolin-4-yl]amino}methyl)phenyl]benzamide]"
23,> 2890 nM,"CNc1nc(NCc2ccc(NC(=O)c3ccc(Cl)cc3)cc2)c2c(C)cccc2n1 [Example 193, 4-chloro-N-[4-({[5-methyl-2-(methylamino)quinazolin-4-yl]amino}methyl)phenyl]benzamide]"

row,Compound,IC50
1,"CNc1nc(NCc2ccc(NC(=O)c3ccc(Cl)nc3)cc2)c2cccc(C)c2n1 [Example 183, 6-chloro-N-[4-({[8-methyl-2-(methylamino)quinazolin-4-yl]amino}methyl)phenyl]nicotinamide]",> 2890 nM
